Target: T1, full-length human Mineralocorticoid Receptor (MR) (Homo sapiens, UniProt P08235)
T1 construct: host or cells: PathHunter CHO-K1 cells
T1 sequence (P08235 1-984): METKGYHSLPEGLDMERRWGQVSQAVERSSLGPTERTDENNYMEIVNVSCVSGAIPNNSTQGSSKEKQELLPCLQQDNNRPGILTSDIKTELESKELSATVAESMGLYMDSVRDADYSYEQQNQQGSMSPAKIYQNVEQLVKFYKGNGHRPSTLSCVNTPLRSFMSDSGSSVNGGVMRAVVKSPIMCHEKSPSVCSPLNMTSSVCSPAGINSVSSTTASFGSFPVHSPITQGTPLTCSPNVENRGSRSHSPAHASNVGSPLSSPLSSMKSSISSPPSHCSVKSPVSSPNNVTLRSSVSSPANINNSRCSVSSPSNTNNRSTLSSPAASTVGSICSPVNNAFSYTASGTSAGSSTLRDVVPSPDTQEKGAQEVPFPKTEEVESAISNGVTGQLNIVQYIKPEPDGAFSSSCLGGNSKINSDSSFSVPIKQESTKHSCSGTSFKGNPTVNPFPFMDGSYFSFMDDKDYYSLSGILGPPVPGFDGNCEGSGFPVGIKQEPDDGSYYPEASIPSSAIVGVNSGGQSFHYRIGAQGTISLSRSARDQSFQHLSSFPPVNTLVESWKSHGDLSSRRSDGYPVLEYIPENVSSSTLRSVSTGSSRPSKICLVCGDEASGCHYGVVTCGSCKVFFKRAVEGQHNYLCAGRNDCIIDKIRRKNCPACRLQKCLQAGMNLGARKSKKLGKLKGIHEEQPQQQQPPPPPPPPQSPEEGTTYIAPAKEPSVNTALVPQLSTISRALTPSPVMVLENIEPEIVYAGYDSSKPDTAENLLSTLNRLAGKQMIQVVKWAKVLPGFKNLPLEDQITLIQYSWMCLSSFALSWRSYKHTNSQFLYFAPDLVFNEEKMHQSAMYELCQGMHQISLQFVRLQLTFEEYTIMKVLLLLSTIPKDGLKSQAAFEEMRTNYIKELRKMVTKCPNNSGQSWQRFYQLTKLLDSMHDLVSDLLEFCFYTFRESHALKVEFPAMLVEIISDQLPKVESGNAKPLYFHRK
Assay: human MR NH Pro assay (PathHunter Protein:Protein interaction assay, MR antagonism)
Format: cell-based
Conditions: PathHunter CHO-K1 cells overexpressing human MR; aldosterone 0.3 nM; 6 hours at 37° C.; luminescence; read-out: IC50 rating
Method: The activity of the compounds of the present invention regarding mineralocorticoid receptor antagonism was evaluated using the following assay.
Assessment of Mr Potency in Hmr Nh Pro Assay
The human MR NH Pro assay is a commercially available PathHunter™ Protein: Protein interaction assay (DiscoveRx; http://www.discoverx.com/nhrs/prod-nhrs.php) that measures the ability of compounds to antagonize full-length human Mineralocorticoid Receptor (MR) binding to a coactivator peptide. PathHunter™ CHO-K1 cells that overexpress human MR (Cat #93-0456C2, Lot No: 09B0913) were cultured in growth media (F12K w/Glutamine and phenol red (Gibco 11765-047) supplemented with 10% HI FBS (Gibco 16000); 0.25 mg/ml Hygromycin in PBS (Invitrogen 10687-010, 50 mg/ml); 100 I.U./mL and 100 μg/mL Pen/Strep (Gibco 15140-122); 0.6 mg/mL Geneticin).
Compounds were assessed for MR antagonist activity by incubating the cells with a titrating dose of compound in F12K w/Glutamine and phenol red culture media (Invitrogen 11765-047) supplemented with 1% Charcoal/Dextran Treated FBS (Hyclone #SH30068.01) and aldosterone (0.3 nM) for 6 hours at 37° C.
• F12K w/Glutamine and phenol red (Gibco 11765-047) • 10% HI FBS (Gibco 16000) • 0.25 mg/ml Hygromycin in PBS (Invitrogen 10687-010, 50 mg/ml) • 100 I.U./mL and 100 μg/mL Pen/Strep (Gibco 15140-122) • 0.6 mg/mL Geneticin (Gibco 10131, 50 mg/ml) 2. Assay media: • F12K w/Glutamine and phenol red (Invitrogen 11765-047) • 1% Charcoal/Dextran Treated FBS (Hyclone #SH30068.01) 3. 3× PathHunter Detection Reagents (Cat#93-0001) (need ˜6 ml/plate). […] Control Agonist: Aldosterone: Sigma cat #A9477 • Prepare stock solution—10 μM in DMSO kept at −20 C • for assay, dilute in assay media to 1.8 or 6 nM (6× of final concentration=about 0.3 nM to about 1.0 nM) 5. Cell line: PathHunter CHO-K1 MR cells Cat #93-0456C2, Lot No: 09B0913, from operation liquid nitrogen stock. 6. Control Antagonist: Spironolactone: Sigma #S-3378 and Eplerenone Sigma #107724-20-9 (10 mM stock concentration also prepared in DMSO and stored at −20° C.). Methods: Assay Set up and Calculations: • 1. Cells were grown in F12+FBS+Hygromycin+pen/strep+Genetin. • 2. Cells were collected with 0.05% trypsin and the cell suspension was spun and resuspended in a volume of F12+1.5% CD-FBS and counted. • 3. The cells were resuspended to 4×10^5 cells/mL. • 4. Cells were (25 μL/well) added to the wells of a 384 well plate. • 5. The plate was then incubated at 37° C. over night in a humidified incubator with 5% CO2. • 6. Test compounds were titrated starting at 4.4 mM, 10-point titration in 1:3 dilution. • 7. Aldosterone was diluted in assay media to 1.8 nM or 6 nM from 10 μM stock (final concentration to be about 0.3 nM to about 1.0 nM). Protocol for 384 well plate format: 6 hr treatment: • 1. Plated 10K exponentially growing cells/well (25 μL) resuspended in assay media to each well using the Multidrop (Thermo Electron). Use white wall, clear bottom assay plates (Costar #3570) and incubate overnight at 37° C., 5% CO2. • 2. 0.25 μL 120× test compound (final DMSO concentration should be <1%) was added to each well n=2, 10 point titrations starting at 36.7 μM final concentration. • 3. 5 μL 6× agonist (final aldosterone concentration should be about 0.3 nM to about 1.0 nM) was added to all wells using the PlateMate Plus.
(ThermoFisher) (except those wells in columns 23 and 24) • 4. 5 μL of assay media was added to all wells in column 23 and 24. • 5. Plates were incubated 6 hrs at 37° C., 5% CO2. • 6. 15 μL 3× DiscoveRx detection reagent was added to each well. • 7. Plates were incubated for 1 hour at room temperature (plates stored in the dark). • 8. Plates were read on Envision (PerkinElmer) luminesence plate reader and analyzed using ADA. LC/MS method: (LC2M_Low/Med_Positive mode). LC Conditions: 5-98% CH3CN/H2O+v 0.1% TFA over 1.25 min; Flow Rate=1.5 mL/min, UV wavelength 254 nm; Column: Waters XTerra® MS C18 3.5 μm 2.1×20 mm IS™

C[C@H](c1ccc(F)cc1)N1C(=O)O[C@](Cc2ccccc2)(C(=O)Nc2ccc(Cl)cc2)C1=O [Compound 14, (5R)-5-Benzyl-N-(4-chlorophenyl)-3-[(1R)-1-(4-fluorophenyl)ethyl]-2,4-dioxo-1,3-oxazolidine-5-carboxamide] and C[C@H](c1ccc(F)cc1)N1C(=O)O[C@](Cc2ccccc2)(C(=O)Nc2ccccc2)C1=O [Compound 19, (5R)-5-Benzyl-3-[(1R)-1-(4-fluorophenyl)ethyl]-2,4-dioxo-N-phenyl-1,3-oxazolidine-5-carboxamide] fall in the same range of IC50: 100 to 500 nM for the first, 100 to 500 nM for the second.

C[C@H](c1ccc(F)cc1)N1C(=O)O[C@](Cc2ccccc2)(C(=O)NC(c2cccc(Cl)c2)C(F)(F)F)C1=O (stereo partly drawn) [Compound 18, (5R)-5-Benzyl-N-[1-(3-chlorophenyl)-2,2,2-trifluoroethyl]-3-[(1R)-1-(4-fluorophenyl)ethyl]-2,4-dioxo-1,3-oxazolidine-5-carboxamide] and C[C@H](c1ccc(F)cc1)N1C(=O)O[C@](Cc2ccccc2)(C(=O)Nc2cccnc2)C1=O [Compound 20] fall in the same range of IC50: 100 to 500 nM for the first, 100 to 500 nM for the second.

COc1cc(CNC(=O)[C@@]2(Cc3ccccc3)OC(=O)N([C@H](C)c3ccccc3)C2=O)cc(OC)c1 [Compound 1, (5R)-Benzyl-N-(3,5-dimethoxybenzyl)-2,4-dioxo-3-[(1R)-1-phenylethyl]-1,3-oxazolidine-5-carboxamide] and COc1cc(CNC(=O)[C@@]2(Cc3ccccc3)OC(=O)N([C@H](C)c3ccc(F)cc3)C2=O)cc(OC)c1 [Compound 8, (5R)-5-Benzyl-N-(3,5-dimethoxybenzyl)-3-[(1R)-1-(4-fluorophenyl)ethyl]-2,4-dioxo-1,3-oxazolidine-5-carboxamide] cannot be ordered by IC50: under 100 nM for the first, under 100 nM for the second.

C[C@H](C1CCCCC1)N1C(=O)O[C@](Cc2ccc(F)cc2)(C(=O)Nc2ccc(Cl)cc2)C1=O [Compound 16, (5R)-N-(4-Chlorophenyl)-3-[(1R)-1-cyclohexylethyl]-5-(4-fluorobenzyl)-2,4-dioxo-1,3-oxazolidine-5-carboxamide] and C[C@H](C1CCCCC1)N1C(=O)O[C@](Cc2ccccc2)(C(=O)NCc2ccc(Cl)c(Cl)c2)C1=O [Compound 17, (5R)-5-Benzyl-3-[(1R)-1-cyclohexylethyl]-N-(3,4-dichlorobenzyl)-2,4-dioxo-1,3-oxazolidine-5-carboxamide] fall in the same range of IC50: 100 to 500 nM for the first, 100 to 500 nM for the second.

Compared with COc1cc(CNC(=O)[C@@]2(Cc3ccc(F)cc3)OC(=O)N([C@H](C)c3ccccc3)C2=O)cc(OC)c1 [Compound 3, (5R)-N-(3,5-Dimethoxybenzyl)-5-(4-fluorobenzyl)-2,4-dioxo-3-[(1R)-1-phenylethyl]-1,3-oxazolidine-5-carboxamide], COc1cc(CNC(=O)[C@@]2(Cc3ccccc3)OC(=O)N([C@H](C)c3ccc(Cl)cc3)C2=O)cc(OC)c1 [Compound 9, (5R)-5-Benzyl-3-[(1R)-1-(4-chlorophenyl)ethyl]-N-(3,5-dimethoxybenzyl)-2,4-dioxo-1,3-oxazolidine-5-carboxamide] is lower in IC50: 100 to 500 nM for the first, under 100 nM for the second.

Compared with C[C@H](c1ccccc1)N1C(=O)N[C@](Cc2ccccc2)(C(=O)N2CCc3ccccc3C2)C1=O (single isomer, unassigned) [Compound 23], C[C@H](c1ccccc1)N1C(=O)O[C@](Cc2ccccc2)(C(=O)N2CCc3ccccc3C2)C1=O [Compound 21, (5R)-Benzyl-5-(3,4-dihydroisoquinolin-2(1H)-ylcarbonyl)-3-[(1R)-1-phenylethyl]-1,3-oxazolidine-2,4-dione] is lower in IC50: 500 to 4500 nM for the first, 100 to 500 nM for the second.

First: COc1cc(CNC(=O)[C@@]2(Cc3ccccc3)OC(=O)N(C(C)C)C2=O)cc(OC)c1 [Compound 6, (5R)-5-Benzyl-N-(3,5-dimethoxybenzyl)-3-(1-methylethyl)-2,4-dioxo-1,3-oxazolidine-5-carboxamide]
Second: COc1cc(CNC(=O)[C@@]2(Cc3ccccc3)OC(=O)N([C@H](C)C3CCCCC3)C2=O)cc(OC)c1 [Compound 10, (5R)-5-Benzyl-3-[(1R)-1-cyclohexylethyl]-N-(3,5-dimethoxybenzyl)-2,4-dioxo-1,3-oxazolidine-5-carboxamide]
The IC50 of the first is higher: 100 to 500 nM for the first, under 100 nM for the second.

COc1cc(CNC(=O)[C@@]2(Cc3ccccc3)OC(=O)N(C3CCCc4ccccc43)C2=O)cc(OC)c1 (stereo partly drawn) [Compound 7, (5R)-5-Benzyl-N-(3,5-dimethoxybenzyl)-2,4-dioxo-3-(1,2,3,4-tetrahydronaphthalen-1-yl)-1,3-oxazolidine-5-carboxamide] and C[C@H](c1ccccc1)N1C(=O)O[C@](Cc2ccccc2)(C(=O)N[C@H]2C[C@H](c3ccccc3)C2)C1=O [Compound 4, (5R)-5-Benzyl-2,4-dioxo-N-(trans-3-phenylcyclobutyl)-3-[(1R)-1-phenylethyl]-1,3-oxazolidine-5-carboxamide] fall in the same range of IC50: 100 to 500 nM for the first, 100 to 500 nM for the second.

C[C@H](c1ccc(F)cc1)N1C(=O)O[C@](Cc2ccc(F)cc2)(C(=O)NCc2ccc(Cl)c(Cl)c2)C1=O [Compound 2, (5R)-N-(3,4-Dichlorobenzyl)-5-(4-fluorobenzyl)-3-[(1R)-1-(4-fluorophenyl)ethyl]-2,4-dioxo-1,3-oxazolidine-5-carboxamide] and C[C@H](c1ccccc1)N1C(=O)O[C@](Cc2ccccc2)(C(=O)N2Cc3ccccc3C2)C1=O [Compound 22, (5R)-Benzyl-5-(1,3-dihydro-2H-isoindol-2-ylcarbonyl)-3-[(1R)-1-phenylethyl]-1,3-oxazolidine-2,4-dione] fall in the same range of IC50: 100 to 500 nM for the first, 100 to 500 nM for the second.

Source: patent US9505730B2, “Mineralocorticoid receptor antagonists” (Merck Sharp & Dohme Corp., priority 2011, dated 2016)
